Experimental data taken from ChEMBL document CHEMBL1201862, “PubChem BioAssay data set” (2004).
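Exposure lasted 48 hours, with cells grown in 96-well plates and compounds tested at five concentrations. Abbreviation: GI50, concentration required for 50% inhibition of growth.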 Calls of active or inactive are those of the source. Cut-off read from the data, not from the text of the source: active = GI50 up to about 1.1 µM and inactive = higher.

Assays:
Assay in all cases: inhibition of tumour cell growth, NCI panel, 48 h
T47D = system: T47D
PC-3 = system: PC-3
SK-MEL-2 = system: SK-MEL-2
U-251 = system: U-251
CAKI-1 = system: CAKI-1
DU-145 = system: DU-145
IGROV-1 = system: IGROV-1
COLO 205 = system: COLO 205
UACC-62 = system: UACC-62
MDA-MB-435 = system: MDA-MB-435
OVCAR-8 = system: OVCAR-8
UACC-257 = system: UACC-257
MOLT-4 = system: MOLT-4
EKVX = system: EKVX
HCT-15 = system: HCT-15
SNB-19 = system: SNB-19
SW-620 = system: SW-620
SF-295 = system: SF-295
UO-31 = system: UO-31
M14 = system: M14

SMILES	GI50 (T47D)	GI50 (PC-3)	GI50 (SK-MEL-2)	GI50 (U-251)	GI50 (CAKI-1)	GI50 (DU-145)	GI50 (IGROV-1)	GI50 (COLO 205)	GI50 (UACC-62)	GI50 (MDA-MB-435)	GI50 (OVCAR-8)	GI50 (UACC-257)	GI50 (MOLT-4)	GI50 (EKVX)	GI50 (HCT-15) [µM]	GI50 (SNB-19)	GI50 (SW-620)	GI50 (SF-295)	GI50 (UO-31)	GI50 (M14)
Cc1sc2nc(-c3ccc([N+](=O)[O-])cc3)c(/C=N/N=C(N)N)n2c1C	0.664 µM (active)	1.28 µM (inactive)	0.457 µM (active)	0.179 µM (active)	2.07 µM (inactive)	1.27 µM (inactive)	1.4 µM (inactive)	0.251 µM (active)	1.73 µM (inactive)	0.979 µM (active)	0.53 µM (active)	1.46 µM (inactive)	0.83 µM (active)	1.17 µM (inactive)	1.35	0.721 µM (active)	0.195 µM (active)	1.16 µM (inactive)	1.62 µM (inactive)	0.67 µM (active)
O=C(NC1CCN(Cc2ccccc2)CC1)c1ccccc1I	22.2 µM (inactive)	23.6 µM (inactive)	23.4 µM (inactive)	23.2 µM (inactive)	53.5 µM (inactive)	61.9 µM (inactive)	42.6 µM (inactive)	18.9 µM (inactive)	18.5 µM (inactive)	17.4 µM (inactive)	39.8 µM (inactive)	18.1 µM (inactive)	17 µM (inactive)	43.3 µM (inactive)	17.7	51.4 µM (inactive)	19.7 µM (inactive)	20.2 µM (inactive)	15.8 µM (inactive)	18.7 µM (inactive)
COc1ccc(/C=C2\CCS(=O)(=O)c3ccccc3C2=O)cc1	22.7 µM (inactive)	27.5 µM (inactive)	31.4 µM (inactive)	17.8 µM (inactive)	26.5 µM (inactive)	23.2 µM (inactive)	18.2 µM (inactive)	15.2 µM (inactive)	20 µM (inactive)	26.9 µM (inactive)	22.2 µM (inactive)	23.3 µM (inactive)	18.1 µM (inactive)	19.1 µM (inactive)	19.6	24.5 µM (inactive)	20.9 µM (inactive)	35 µM (inactive)	19.7 µM (inactive)	34.4 µM (inactive)
COC(=O)/C=C1\C(=O)C=C2[C@@H]3C[C@H]4C[C@H](CC[C@@]4(C)N21)C3(C)NC(C)=O (stereo not given in full)	7.23 µM (inactive)	15.1 µM (inactive)	18.4 µM (inactive)	17 µM (inactive)	5.64 µM (inactive)	10.7 µM (inactive)	20 µM (inactive)	5.9 µM (inactive)	17.6 µM (inactive)	9.02 µM (inactive)	16.6 µM (inactive)	15.6 µM (inactive)	3.33 µM (inactive)	11.4 µM (inactive)	11.5	25.9 µM (inactive)	2.8 µM (inactive)	19.5 µM (inactive)	19.5 µM (inactive)	8.91 µM (inactive)
Oc1ccc(Cl)cc1Cc1cc(Cl)cc(Cc2cc(Cl)ccc2O)c1O	2.07 µM (inactive)	2.45 µM (inactive)	2.61 µM (inactive)	2.7 µM (inactive)	2.48 µM (inactive)	2.96 µM (inactive)	3.2 µM (inactive)	1.76 µM (inactive)	2.15 µM (inactive)	2.82 µM (inactive)	3.43 µM (inactive)	2.01 µM (inactive)	2.34 µM (inactive)	2.33 µM (inactive)	2.54	2.56 µM (inactive)	3.29 µM (inactive)	2.29 µM (inactive)	3.01 µM (inactive)	2.39 µM (inactive)
CCN(CC)CCN1C(=O)c2cccc3cc(N)cc(c23)C1=O	18.7 µM (inactive)	16.1 µM (inactive)	18.9 µM (inactive)	9.48 µM (inactive)	7.28 µM (inactive)	8.45 µM (inactive)	7.59 µM (inactive)	4.41 µM (inactive)	11.8 µM (inactive)	10.2 µM (inactive)	6.68 µM (inactive)	10.7 µM (inactive)	3.46 µM (inactive)	5.02 µM (inactive)	5.43	13.6 µM (inactive)	4.91 µM (inactive)	9.12 µM (inactive)	5.89 µM (inactive)	13.3 µM (inactive)
CCOC(=O)[C@@]12C[C@](/C=C/OC)(O[Si](C)(C)C)[C@@]13c1cc(OC)c(OC)cc1CCN3C(=O)C2O (stereo not given in full)	> 100 µM (inactive)	> 100 µM (inactive)	> 100 µM (inactive)	> 100 µM (inactive)	> 100 µM (inactive)	> 100 µM (inactive)	> 100 µM (inactive)	> 100 µM (inactive)	46.9 µM (inactive)	> 100 µM (inactive)	> 100 µM (inactive)	> 100 µM (inactive)	> 100 µM (inactive)	> 100 µM (inactive)	> 100	> 100 µM (inactive)	> 100 µM (inactive)	> 100 µM (inactive)	> 100 µM (inactive)	> 100 µM (inactive)
COC(=O)N1CC[C@@H]2CCC=C(c3cccc4c3OCO4)[C@@H]21	32.1 µM (inactive)	54.2 µM (inactive)	> 100 µM (inactive)	> 100 µM (inactive)	> 100 µM (inactive)	> 100 µM (inactive)	> 100 µM (inactive)	> 100 µM (inactive)	81.7 µM (inactive)	> 100 µM (inactive)	> 100 µM (inactive)	78.5 µM (inactive)	26.1 µM (inactive)	79.4 µM (inactive)	93.3	74.3 µM (inactive)	> 100 µM (inactive)	> 100 µM (inactive)	40.7 µM (inactive)	> 100 µM (inactive)
O=C1C=C(NCCc2cc(Br)c(O)c(Br)c2)C(=O)c2[nH]cnc21	30.3 µM (inactive)	3.69 µM (inactive)	23.4 µM (inactive)	38.3 µM (inactive)	39.9 µM (inactive)	36.7 µM (inactive)	17.6 µM (inactive)	24.7 µM (inactive)	19.5 µM (inactive)	15.6 µM (inactive)	38.7 µM (inactive)	5.6 µM (inactive)	> 10 µM (inactive)	96.2 µM (inactive)	18	36.1 µM (inactive)	21.6 µM (inactive)	30.5 µM (inactive)	75 µM (inactive)	24.6 µM (inactive)
COC1=CC(=O)c2c(c(COP(=O)(N(C)CCBr)N(C)CCBr)cn2C)C1=O	1.31 µM (inactive)	0.643 µM (active)	0.15 µM (active)	< 0.0225 µM (active)	< 0.01 µM (active)	0.0134 µM (active)	1.17 µM (inactive)	0.0521 µM (active)	< 0.0333 µM (active)	0.0588 µM (active)	< 0.0264 µM (active)	0.258 µM (active)	< 0.01 µM (active)	0.211 µM (active)	< 0.0234	0.141 µM (active)	< 0.0109 µM (active)	< 0.01 µM (active)	< 0.0261 µM (active)	< 0.0178 µM (active)
O=[N+]([O-])c1ccc(CSc2c3ccccc3nc3ccccc23)cc1	1.85 µM (inactive)	7.43 µM (inactive)	16.9 µM (inactive)	7.28 µM (inactive)	15.4 µM (inactive)	2.3 µM (inactive)	2.82 µM (inactive)	3.13 µM (inactive)	14.4 µM (inactive)	4.94 µM (inactive)	3.33 µM (inactive)	3.33 µM (inactive)	2.31 µM (inactive)	15.9 µM (inactive)	3.91	15.8 µM (inactive)	2.88 µM (inactive)	21.1 µM (inactive)	5.62 µM (inactive)	4.56 µM (inactive)
O=C(CCN1CCCCC1)Nc1ccc2sc3ccccc3c(=O)c2n1	28.4 µM (inactive)	11.9 µM (inactive)	> 10 µM (inactive)	14.6 µM (inactive)	11.5 µM (inactive)	18.4 µM (inactive)	13.4 µM (inactive)	8.32 µM (inactive)	14.5 µM (inactive)	13.1 µM (inactive)	> 10 µM (inactive)	19.7 µM (inactive)	2.56 µM (inactive)	20.2 µM (inactive)	15.1	15.4 µM (inactive)	8.3 µM (inactive)	18.1 µM (inactive)	9.79 µM (inactive)	13.6 µM (inactive)
O=C(O)Cc1ccc(Oc2nc3ccccc3nc2-c2cccs2)cc1	20 µM (inactive)	46.3 µM (inactive)	84.1 µM (inactive)	30.5 µM (inactive)	55.7 µM (inactive)	81.7 µM (inactive)	68.9 µM (inactive)	31 µM (inactive)	58.1 µM (inactive)	92 µM (inactive)	71.9 µM (inactive)	> 100 µM (inactive)	50 µM (inactive)	32.4 µM (inactive)	35.3	82.8 µM (inactive)	> 100 µM (inactive)	42.6 µM (inactive)	37.3 µM (inactive)	66.4 µM (inactive)
CCN1C(NN)=NS(=O)(=O)c2ccccc21	> 100 µM (inactive)	> 100 µM (inactive)	> 100 µM (inactive)	> 100 µM (inactive)	> 100 µM (inactive)	> 100 µM (inactive)	> 100 µM (inactive)	> 100 µM (inactive)	> 100 µM (inactive)	> 100 µM (inactive)	> 100 µM (inactive)	> 100 µM (inactive)	> 100 µM (inactive)	> 100 µM (inactive)	> 100	> 100 µM (inactive)	> 100 µM (inactive)	> 100 µM (inactive)	> 100 µM (inactive)	> 100 µM (inactive)
